# Measured values reported in PMC9762789, “Chromone-based monoamine oxidase B inhibitor with potential iron-chelating activity for the treatment of Alzheimer’s disease” (Journal of Enzyme Inhibition and Medicinal Chemistry, 2022).
# Like-named read-outs stand apart in the source and are kept apart here.
# Columns and labels:
# [1] = system: scopolamine-induced cognitive impairment mice model; assay: Morris water maze test, scopolamine-induced memory impairment; type: in vivo, ICR mice
# Description: To further explore the in vivo anti-AD effect of compound 17d on the scopolamine-induced cognitive impairment mice model, the Morris Water Maze experiment was selected; data are shown in Figure 7 and Table 5.
# Figure 7.
# Adult female ICR mice (weight 20–25 g) were obtained from the Zhejiang Academy of Medical Sciences (Hangzhou, China). Scopolamine hydrobromide and Pargyline were purchased from Aladdin Reagents. Memantine was purchased from Energy Chemical. All experiments were approved by the Laboratory Animals Ethical Committee of the Zhejiang University of Technology (No. 20211210103). In this test, mice were prepared as clarified and clear injections, consisting of 20% (2-Hydroxypropyl)-β-cyclodextrin, 10% DMSO, and PBS. […] Mice were administered at a frequency of once a day over 15 d with a fixed dosing schedule. The body weight of mice was measured during the experiment.
# After eliminating environmental stress, the behavioural test was performed over the next five days. The mice were trained to find the platform (10 cm diameter) in the circular light-avoidance pool (120 cm diameter and 60 cm height) filled with water (40 cm, depth), which was described in detail in our previous study. All mice received at least one training session daily in four quadrants for four consecutive days before the probe trial of finding the platform within 120 s. Recordings were made with SMART version 3.0 (Panlab, Spain) and processed by Graphpad Prism version 6 software (Graphpad Software Inc., La Jolla, CA, USA).
# Human MAO-A = target: T1, Human MAO-A (Homo sapiens, UniProt P21397); assay: hMAO-A inhibition assay; type: biochemical
# T1 construct: purchased Sigma-Aldrich
# T1 sequence (P21397 1-527): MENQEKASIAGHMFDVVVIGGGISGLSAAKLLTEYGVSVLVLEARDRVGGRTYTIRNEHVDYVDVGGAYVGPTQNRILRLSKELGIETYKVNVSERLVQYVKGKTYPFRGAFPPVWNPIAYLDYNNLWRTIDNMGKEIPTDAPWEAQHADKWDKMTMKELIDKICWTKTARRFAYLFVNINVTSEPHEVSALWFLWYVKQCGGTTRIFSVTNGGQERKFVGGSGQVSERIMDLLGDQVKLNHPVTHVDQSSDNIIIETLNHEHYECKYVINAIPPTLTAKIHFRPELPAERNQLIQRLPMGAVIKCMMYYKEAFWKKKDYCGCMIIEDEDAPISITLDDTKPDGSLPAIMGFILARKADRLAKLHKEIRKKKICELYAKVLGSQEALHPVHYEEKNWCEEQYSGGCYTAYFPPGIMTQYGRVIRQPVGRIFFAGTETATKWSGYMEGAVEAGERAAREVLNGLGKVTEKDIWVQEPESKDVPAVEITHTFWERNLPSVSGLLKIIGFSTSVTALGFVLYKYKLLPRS
# In short: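 Inhibition of hMAO-A was tested using diluted substrate and enzyme solutions per kit manuals. Selectivity index was calculated as IC50 (hMAO-A)/IC50 (hMAO-B).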
# [2] = iron (III) affinity constants and pFe3+ by spectrophotometric titration; type: physicochemical
# [3] = pKa determination by automated spectrophotometric titration; type: physicochemical; settings: 0.1 M KCl solution
# [4] = DMSO: KCl (0.1 M) = 1:1.5 (v/v)
compound,measurement,setting,value
"COc1ccc2c(=O)c(CNCCn3ccc(=O)c(O)c3C)coc2c1 [Compound 17d, 3-Hydroxy-1–(2-(((7-methoxy-4-oxo-4H-chromen-3-yl)methyl)amino)ethyl)-2-methylpyridin-4(1H)-one]",body weight of mice,"[1]; 15 mg/kg once a day, after ten days",increased after ten days
same,scopolamine-induced cognitive impairment,"[1]; 15 mg/kg, mice, Morris water maze",significantly ameliorated
same,Entries to target,"[1]; 15 mg/kg, scopolamine 15 mg/kg, ICR mice, mean ± SEM, n = 15",3.3 ± 0.3
same,melting point,,252 to 254 °C
same,IC50,Human MAO-A,739 ± 21.9 nM
same,Log β1,[2]; [4],13.50
same,Log β2,[2]; [4],25.21
same,Log β3,[2]; [4],35.13
same,pFe^3+,[2]; calculated from Log β values obtained in DMSO: KCl (0.1 M) = 1:1.5 (v/v),18.52
same,pKa,[3]; read-out: pKa1,2.86
same,pKa,[3]; read-out: pKa2,9.78
